Among the data in PubChem BioAssay (NCI) are GI50 and TGI values, retold here.

What all share (test): NCI-60 cell line screen, 48 h
For experiment [1], the system named is SNB-19 CNS.
The test system of experiment [2] is PC-3 prostate.
Experiment [3] deals with NCI-H226 lung.
The test system of experiment [4] is 786-0 renal.
For experiment [5], the system named is MDA-MB-435.
Experiment [6] deals with KM12 colon.
Experiment [7] has as its system HT29 colon.
In experiment [8] the test system is SK-MEL-28 melanoma.
The test system of experiment [9] is CCRF-CEM leukemia.
For experiment [10], the system named is SF-295 CNS.

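Cultured in 96-well plates, cells were exposed to test compound for 48 hours across five concentrations. Here, GI50 denotes the concentration required for 50% inhibition of growth. TGI denotes the concentration required for complete inhibition of growth.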 Where a SMILES comes first, the peptide text is derived from it. [ ]: non-standard residue; d: D form. The star is where a group is joined. ξ: configuration not given here. dIva = CC[C@@](C)(N)C(=O)O; Aib = CC(C)(N)C(=O)O; ξP = O=C(O)C1CCCN1; βAla = NCCC(=O)O; X5 = OCN*

Regarding `O=C(CN1CCN(c2ccccn2)CC1)Nc1ccc(Cl)cc1C(=O)c1ccccc1Cl`, the GI50 was 79.6 µM in experiment [1]; 6 µM in experiment [2]; above 100 µM in experiment [3]; 1.57 µM in experiment [4]; 28.4 µM in experiment [5]; 7.73 µM in experiment [6]. The GI50 in [7] was 8.92 µM; in experiment [8], above 100 µM; in experiment [9], 9.99 µM; in experiment [10], 30.5 µM. Moreover, the TGI in experiment [1], in experiment [2], in [3], in experiment [4], in experiment [5] and in [6] was above 100 µM in each case. Besides, the TGI in experiment [7], in experiment [8], in experiment [9] and in experiment [10] was above 100 µM throughout.

Consider `CC(=O)N1c2ccc(-c3ccc(C(=O)O)cc3)cc2[C@H](Nc2ccc(Cl)cc2)C[C@@H]1C`, for which the GI50 is 1.06 µM in experiment [1]; 1.24 µM in [2]; 1.71 µM in [3]; 0.125 µM in [4]; 0.233 µM in [5]; 0.924 µM in experiment [6]. Besides, the GI50 in experiment [7] was 0.122 µM; in [8] it was 0.494 µM; in [9], 1.63 µM; in experiment [10] it was 0.477 µM. Besides, the TGI is above 100 µM in experiment [1]; 28.7 µM in [2]; 19.9 µM in experiment [3]; 40.2 µM in experiment [4]; above 56 µM in [5]; 20.2 µM in [6]. Further, the TGI in experiment [7] was 29 µM; in experiment [8], 34.8 µM; in [9], 30.3 µM; in experiment [10] it was 18.1 µM.

Take `CNCC1CCn2c(c(C3=C(c4cn(C)c5ccccc45)C(=O)NC3=O)c3ccccc32)C1` (stereo unspecified): the GI50 in [1] is 4.58 µM; in experiment [2] it was 2.39 µM; in experiment [3], 3.23 µM; in [4], 4.88 µM; in experiment [5], 2.75 µM; in experiment [6], 3.41 µM. The GI50 in experiment [7] is 2.79 µM; in experiment [8] it was 3.78 µM; in [9] it was 2.89 µM; in [10], 2.49 µM. The TGI in experiment [1] was determined as 16.3 µM; in [2], 8.79 µM; in experiment [3] it was 14.2 µM; in [4], 11 µM; in experiment [5] it was 5.94 µM; in experiment [6], 7.41 µM. In addition, the TGI was determined as 8.18 µM in [7], 7.28 µM in experiment [8], 12 µM in [9] and 6.38 µM in [10].

For `COc1cc(OC)c2c(c1Cl)O[C@]1(C2=O)C(OCc2ccccc2)=CC(=O)C[C@H]1C`, the GI50 is 5.68 µM in [1]; 1.6 µM in experiment [2]; 4.18 µM in [3]; 0.944 µM in experiment [4]; 0.23 µM in experiment [5]; 0.596 µM in experiment [6]. Also, the GI50 in experiment [7] is 0.534 µM; in [8], 1.85 µM; in experiment [9] it was 0.532 µM; in experiment [10], 0.492 µM. Moreover, the TGI in experiment [1] is 98.8 µM; in experiment [2] it was 63.3 µM; in experiment [3], 30.2 µM; in [4] it was 79.7 µM; in experiment [5], 0.549 µM; in [6] it was above 100 µM. Moreover, the TGI in experiment [7] came out at 15.8 µM; in experiment [8], 24.8 µM; in experiment [9] it was 12.2 µM; in experiment [10] it was 5.59 µM.

For the compound `CN1C(=O)C(C)(C)Oc2c(-c3cn(C)c(=O)c4[nH]ccc34)cc(S(C)(=O)=O)cc21`, the GI50 in [1] is 1.6 µM; in [2], 2.01 µM; in experiment [3], 2.26 µM; in [4], 2.06 µM; in [5], 0.637 µM; in [6], 1.44 µM. The GI50 in [7] was 0.339 µM; in experiment [8], 3.92 µM; in experiment [9], 1.45 µM; in [10], 2.68 µM. In addition, the TGI in experiment [1] was above 100 µM; in experiment [2], above 100 µM; in experiment [3], above 100 µM; in experiment [4], above 100 µM; in [5], above 100 µM; in [6] it was 16.1 µM. The TGI in [7], in [8], in [9] and in [10] was above 100 µM throughout.

Turning to `C[C@H](CCCOS(C)(=O)=O)[C@H]1CC[C@H]2[C@@H]3CC[C@@H]4C[C@H](OS(C)(=O)=O)CC[C@]4(C)[C@H]3CC[C@]12C`, the GI50 is 929 µM in experiment [1]; 852 µM in experiment [2]; 418 µM in experiment [3]; 523 µM in [4]; 1140 µM in [5]; 1230 µM in [6]. The GI50 in experiment [7] is 1920 µM; in experiment [8], 1060 µM; in experiment [9] it was above 2500 µM; in [10], 532 µM. The TGI in [1] was above 2500 µM; in experiment [6], above 2500 µM; in [7], above 2500 µM; in experiment [8], above 2500 µM; in [9], above 2500 µM; in experiment [10] it was 1340 µM.

With `CC[C@@](C)(NC(=O)[C@H](C)NC(=O)CCNC(=O)C(C)(C)NC(=O)[C@H](C)NC(=O)[C@@H]1CCCN1C(=O)[C@@](C)(CC)NC(=O)[C@H](Cc1ccccc1)NC(=O)C1CCCN1C(=O)C(C)(C)NC(=O)C1CCCN1C(=O)C(C)(C)NC(C)=O)C(=O)NCCC(=O)N[C@@H](CC(C)C)C(=O)NC(C)(C)C(=O)NCCC(=O)N[C@@H](CC(C)C)C(=O)NC(C)(C)C(=O)NC(C)(C)C(=O)N[C@@H](CC(C)C)C(=O)NCCC(=O)NCO` (stereo partly specified) (Ac-[Aib][ξP][Aib][ξP]F[dIva]PA[Aib][βAla]A[dIva][βAla]L[Aib][βAla]L[Aib][Aib]L[βAla]-X5), the GI50 in [1] is 0.0952 µM; in experiment [2], 0.0765 µM; in experiment [3] it was 0.101 µM; in experiment [4] it was 0.203 µM; in experiment [5] it was 0.142 µM; in experiment [6], 0.168 µM. The GI50 is 0.197 µM in [7], 0.187 µM in [8], 0.224 µM in experiment [9] and 0.0539 µM in experiment [10]. In addition, the TGI in experiment [1] is 0.304 µM; in experiment [2] it was 0.264 µM; in [3], 0.342 µM; in [4], 0.414 µM; in experiment [5], 0.357 µM; in [6] it was 0.368 µM. Moreover, the TGI in [7] was 0.414 µM; in experiment [8], 0.431 µM; in experiment [9], 0.577 µM; in [10], 0.213 µM.
